According to ChEMBL document CHEMBL5385901, “Drug repurposing of propafenone to discover novel anti-tumor agents by impairing homologous recombination to delay DNA damage recovery of rare disease conjunctival melanoma” (Eur J Med Chem, 2023):
Calls of active or inactive are those of the source. The rule behind the calls is not given here.

Key:
[1] = Antiproliferative activity against human CM-AS16 cells assessed as cell growth inhibition incubated for 72 hrs by CCK8 assay; assay type: functional, cell-based; conditions: CM-AS16, 72 h
[2] = test system: CRMM-2; test: Antiproliferative activity against human CRMM-2 cells assessed as cell growth inhibition incubated for 72 hrs by CCK8 assay; assay type: functional, cell-based; conditions: CRMM-2, 72 h
[3] = Antiproliferative activity against human CM2005.1 cells assessed as cell growth inhibition incubated for 72 hrs by CCK8 assay; assay type: functional, cell-based; conditions: CM2005.1, 72 h
[4] = test system: CRMM-1; test: Antiproliferative activity against human CRMM-1 cells assessed as cell growth inhibition incubated for 72 hrs by CCK8 assay; assay type: functional, cell-based; conditions: CRMM-1, 72 h
[5] = Antiproliferative activity against human HL7702 cells assessed as cell growth inhibition incubated for 72 hrs by CCK8 assay; assay type: toxicity, cell-based; conditions: HL7702 (L02) cells
[6] = Antiproliferative activity against human PIG1 cells assessed as cell growth inhibition incubated for 72 hrs by CCK8 assay; assay type: toxicity, cell-based
[7] = test system: CRMM-1; test: Inhibition of homologous recombination in human CRMM-1 cells at 10 uM incubated for 12 hrs by real-time PCR analysis; assay type: functional, cell-based
[8] = test system: CRMM-1; test: Induction of apoptosis in human CRMM-1 cells at 0.1 uM measured after 48 hrs by DAPI/Annexin-V-PE staining based flow cytometry; assay type: functional, cell-based
[9] = test system: CRMM-1; test: Induction of apoptosis in human CRMM-1 cells at 0.3 to 3 uM measured after 48 hrs by DAPI/Annexin-V-PE staining based flow cytometry; assay type: functional, cell-based; conditions: dose 0.3-3 µM
[10] = test system: CRMM-1; test: Induction of DNA double strand breaks in human CRMM-1 cells assessed as gamma-H2AX accumulation at 1 uM measured after 24 hrs immunofluorescence based confocal microscopy; assay type: functional, cell-based
[11] = test system: CRMM-2; test: Induction of DNA double strand breaks in human CRMM-2 cells assessed as gamma-H2AX accumulation at 1 uM measured after 24 hrs immunofluorescence based confocal microscopy; assay type: functional, cell-based
[12] = test system: CRMM-1; test: Induction of DNA double strand breaks in human CRMM-1 cells assessed as gamma-H2AX accumulation upto 10 uM by immunoblot analysis; assay type: functional, cell-based
[13] = test system: CRMM-2; test: Induction of DNA double strand breaks in human CRMM-2 cells assessed as gamma-H2AX accumulation upto 10 uM by immunoblot analysis; assay type: functional, cell-based
[14] = test system: CRMM-1; test: Induction of DNA damage in human CRMM-1 cells assessed as increase in p53 level upto 10 uM by immunoblot analysis; assay type: functional, cell-based
[15] = test system: CRMM-2; test: Induction of DNA damage in human CRMM-2 cells assessed as increase in p53 level upto 10 uM by immunoblot analysis; assay type: functional, cell-based
[16] = test system: CRMM-1; test: Induction of DNA damage in human CRMM-1 cells assessed as decrease in MRE11 level measured after 48 hrs by immunoblot analysis; assay type: functional, cell-based; conditions: dose <= 10.0 µM
[17] = test system: CRMM-1; test: Induction of DNA damage in human CRMM-1 cells assessed as decrease in RAD50 level measured after 48 hrs by immunoblot analysis; assay type: functional, cell-based; conditions: dose <= 10.0 µM
[18] = test system: CRMM-1; test: Induction of DNA damage in human CRMM-1 cells assessed as decrease in NBS1 level measured after 48 hrs by immunoblot analysis; assay type: functional, cell-based; conditions: dose <= 10.0 µM
[19] = test system: CRMM-2; test: Induction of DNA damage in human CRMM-2 cells assessed as decrease in MRE11 level measured after 48 hrs by immunoblot analysis; assay type: functional, cell-based; conditions: dose <= 10.0 µM
[20] = test system: CRMM-2; test: Induction of DNA damage in human CRMM-2 cells assessed as decrease in RAD50 level measured after 48 hrs by immunoblot analysis; assay type: functional, cell-based; conditions: dose <= 10.0 µM
[21] = test system: CRMM-2; test: Induction of DNA damage in human CRMM-2 cells assessed as decrease in NBS1 level measured after 48 hrs by immunoblot analysis; assay type: functional, cell-based; conditions: dose <= 10.0 µM
[22] = test system: CRMM-1; test: Induction of DNA damage in human CRMM-1 cells assessed as decrease in […] level upto 10 uM measured after 48 hrs by immunoblot analysis; assay type: functional, cell-based
[23] = test system: CRMM-1; test: Induction of DNA damage in human CRMM-1 cells assessed as decrease in RAD51 level upto 10 uM measured after 48 hrs by immunoblot analysis; assay type: functional, cell-based
[24] = test system: CRMM-2; test: Induction of DNA damage in human CRMM-2 cells assessed as decrease in […] level upto 10 uM measured after 48 hrs by immunoblot analysis; assay type: functional, cell-based
[25] = test system: CRMM-2; test: Induction of DNA damage in human CRMM-2 cells assessed as decrease in RAD51 level upto 10 uM measured after 48 hrs by immunoblot analysis; assay type: functional, cell-based
[26] = target: T1, Double-strand break repair protein MRE11 (Homo sapiens) (UniProt P49959); test: Inhibition of his-tagged human MRE11 endonuclease activity using phage X174 circular ssDNA as substrate at 10 to 300 uM incubated for 30 mins by chemiluminescence based analysis; conditions: dose 10-300 µM
T1 sequence (whole entry): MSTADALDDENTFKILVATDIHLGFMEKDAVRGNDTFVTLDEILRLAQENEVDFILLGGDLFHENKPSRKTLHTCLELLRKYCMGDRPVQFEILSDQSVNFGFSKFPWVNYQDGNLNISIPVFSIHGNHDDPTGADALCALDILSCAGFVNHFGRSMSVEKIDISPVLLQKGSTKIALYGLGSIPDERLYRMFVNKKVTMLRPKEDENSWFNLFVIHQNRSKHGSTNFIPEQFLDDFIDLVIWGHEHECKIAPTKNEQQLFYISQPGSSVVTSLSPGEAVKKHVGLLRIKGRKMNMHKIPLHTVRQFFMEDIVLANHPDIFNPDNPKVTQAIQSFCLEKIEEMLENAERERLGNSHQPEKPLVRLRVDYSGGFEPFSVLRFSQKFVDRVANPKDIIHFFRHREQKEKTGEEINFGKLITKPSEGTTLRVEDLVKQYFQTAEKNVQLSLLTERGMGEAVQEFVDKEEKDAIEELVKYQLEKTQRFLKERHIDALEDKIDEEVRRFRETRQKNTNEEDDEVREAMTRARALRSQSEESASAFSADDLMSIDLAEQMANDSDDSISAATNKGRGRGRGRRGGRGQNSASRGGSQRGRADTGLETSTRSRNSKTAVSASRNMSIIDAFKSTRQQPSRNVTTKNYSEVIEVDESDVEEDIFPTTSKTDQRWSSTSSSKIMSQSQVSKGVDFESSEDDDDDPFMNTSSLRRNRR

[27] = Cytotoxicity against human PIG1 cells at 20 uM incubated for 72 hrs by CCK8 assay relative to control; assay type: toxicity, cell-based; conditions: read-out: INH
[28] = test system: CM-AS16; test: Effect on DNA repair genes in human CM-AS16 cells harboring BRAF mutation at 20 uM by GO enrichment analysis; assay type: functional, cell-based
[29] = test system: CM-AS16; test: Effect on DNA integrity checkpoint genes in human CM-AS16 cells harboring BRAF mutation at 20 uM by GO enrichment analysis; assay type: functional, cell-based
[30] = test system: CM-AS16; test: Effect on Fanconi anemia pathway in human CM-AS16 cells harboring BRAF mutation at 20 uM by KEGG analysis; assay type: functional, cell-based
[31] = Cytotoxicity against human CM-AS16 cells assessed as cell growth inhibition incubated for 72 hrs by CCK8 assay; assay type: functional, cell-based; conditions: CM-AS16, 72 h
[32] = test system: CRMM-2; test: Cytotoxicity against human CRMM-2 cells assessed as cell growth inhibition incubated for 72 hrs by CCK8 assay; assay type: functional, cell-based; conditions: CRMM-2, 72 h
[33] = test system: CRMM-1; test: Cytotoxicity against human CRMM-1 cells assessed as cell growth inhibition incubated for 72 hrs by CCK8 assay; assay type: functional, cell-based; conditions: CRMM-1, 72 h
[34] = Cytotoxicity against human CM2005.1 cells assessed as cell growth inhibition incubated for 72 hrs by CCK8 assay; assay type: functional, cell-based; conditions: CM2005.1, 72 h
[35] = Inhibition of homologous recombination in human CRMM-1 cells at 10 uM incubated for 12 hrs by real-time PCR analysis relative to control; assay type: functional
[36] = test system: CRMM-1; test: Induction of apoptosis in human CRMM-1 cells at 40 uM measured after 48 hrs by DAPI/Annexin-V-PE staining based flow cytometry relative to control; assay type: functional
[37] = test system: CRMM-1; test: Inhibition of cell migration in human CRMM-1 cells assessed as migration rate at 3 uM measured after 72 hrs by wound healing assay (reference value: 70 %); assay type: functional; set-up: scale not given: the % may be the effect or the level left

## C=C(CCc1ccccc1)c1ccccc1OCC(O)CNCCC (stereo unspecified)
[1]
  IC50: 4 µM
[2]
  IC50: 9.5 µM
[3]
  IC50: 9.1 µM
[4]
  IC50: 6.3 µM
[5]
  IC50 at 72 h: 14.8 µM
[6]
  IC50 at 72 h: 16.1 µM
[7]
  inhibition: inactive

## O=C(CCCc1ccccc1)c1c(OCCCN2CCNCC2)ccc2ccccc12
[8]
  Activity: inactive
[9]
  Activity: Active
[10]
  Activity: Active
[11]
  Activity: Active
[12]
  Activity: Active
[13]
  Activity: Active
[14]
  Activity: Active
[15]
  Activity: Active
[16]
  Activity: Dose-Dependent Effect
[17]
  Activity: Dose-Dependent Effect
[18]
  Activity: Dose-Dependent Effect
[19]
  Activity: Dose-Dependent Effect
[20]
  Activity: Dose-Dependent Effect
[21]
  Activity: Dose-Dependent Effect
[22]
  Activity: Active
[23]
  Activity: Active
[24]
  Activity: Active
[25]
  Activity: Active
[26]
  inhibition: Active

## CCCNCC(O)COc1ccccc1C(=O)CCc1ccccc1 (stereo unspecified) [PROPAFENONE]
[27]
  cytotoxicity at 72 h, 20 µM: 26%
[28]
  Activity: Active
[29]
  Activity: Active
[30]
  Activity: Active
[31]
  IC50: 13.7 µM
[32]
  IC50: 13.4 µM
[33]
  IC50: 24.7 µM
[34]
  IC50: 48.3 µM
[1]
  IC50: 13.7 µM
[2]
  IC50: 13.4 µM
[3]
  IC50: 48.3 µM
[4]
  IC50: 24.7 µM
[5]
  IC50 at 72 h: 48.2 µM
[6]
  IC50 at 72 h: 56 µM
[35]
  inhibition at 10 µM: 56.9%
[9]
  Activity: Active
[36]
  Activity: 80%
[37]
  Activity: 58%

## CCCNCCCOc1cc2c(cc1C(=O)CCCc1ccccc1)OCCO2
[1]
  IC50: 4.4 µM
[2]
  IC50: 8.8 µM
[3]
  IC50: 11.6 µM
[4]
  IC50: 5.5 µM
[5]
  IC50 at 72 h: 27.7 µM
[6]
  IC50 at 72 h: 15.4 µM
[7]
  inhibition: inactive
